Measured values from publication PMC6934184, “Selective DNA-PKcs inhibition extends the therapeutic index of localized radiotherapy and chemotherapy” (The Journal of Clinical Investigation, 2019).

Molecular target: T1, MAPKAPK2 (Homo sapiens, UniProt P49137)
T1 construct: purchased Thermo Fisher Scientific (Life Technologies) SelectScreen
Assay: SelectScreen Z'LYTE
Format: biochemical
Procedure, shortened: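 SelectScreen broad panel; activity (Z'LYTE, Adapta) plus binding formats. ATP: Km app for CSF1R Z'LYTE; 10 for CAMK1 Adapta. Readout = % per kinase.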

T1 sequence (P49137 whole entry): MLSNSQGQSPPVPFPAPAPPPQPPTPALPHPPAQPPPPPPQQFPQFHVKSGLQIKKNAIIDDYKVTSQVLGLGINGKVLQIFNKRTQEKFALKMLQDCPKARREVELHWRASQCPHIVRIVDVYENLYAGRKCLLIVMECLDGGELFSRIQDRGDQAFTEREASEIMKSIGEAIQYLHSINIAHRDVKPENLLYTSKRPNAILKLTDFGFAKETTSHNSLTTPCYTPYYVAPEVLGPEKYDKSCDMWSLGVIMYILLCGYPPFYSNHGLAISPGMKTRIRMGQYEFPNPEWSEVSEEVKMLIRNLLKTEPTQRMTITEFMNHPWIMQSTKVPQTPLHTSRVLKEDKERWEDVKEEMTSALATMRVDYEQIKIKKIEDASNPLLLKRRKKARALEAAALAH

In the case of CN(C(=O)CN1CCOCC1)c1ccc2sc3c(-c4cccc5c(=O)cc(N6CC7CCC(C6)O7)oc45)cccc3c2c1 [NU5455], the inhibition at 1 µM is reported as -3.1%.
